PubChem BioAssay (NCI)
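96-well plates; 48 h exposure; 5 concentrations. Endpoints by linear interpolation between flanking doses. Not reached: highest tested concentration assigned. GI50 = concentration required for 50% inhibition of growth. The concentration for full growth arrest is given as TGI.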

How the values were obtained:
Test in all cases: inhibition of tumour cell growth, NCI panel, 48 h
[1] = tested on: SF-539 CNS
[2] = tested on: A549 NSCLC
[3] = tested on: HOP-92 NSCLC
[4] = tested on: OVCAR-3 ovarian
[5] = tested on: SNB-75 CNS
[6] = tested on: 786-0 renal
[7] = tested on: UACC-62 melanoma
[8] = tested on: SF-268 CNS
[9] = tested on: TK-10 renal
[10] = tested on: PC-3 prostate

SMILES: C=C(COC(C)=O)CC(/C=C(\C)CCC=C(C)C)OC(C)=O (stereo not given)
- TGI [1]: > 100 µM
- TGI [2]: > 100 µM
- TGI [3]: > 100 µM
- TGI [4]: > 100 µM
- TGI [5]: > 100 µM
- TGI [6]: > 100 µM
- TGI [7]: > 100 µM
- TGI [8]: > 100 µM
- TGI [9]: > 100 µM

SMILES: NS(=O)(=O)c1ccc(NC(=O)c2cccc3c(=O)c4ccccc4[nH]c23)cc1
- TGI [1]: > 100 µM
- TGI [2]: > 100 µM
- TGI [3]: > 100 µM
- TGI [4]: > 100 µM
- TGI [5]: 55.2 µM
- TGI [6]: > 100 µM
- TGI [7]: > 100 µM
- TGI [8]: > 100 µM
- TGI [9]: > 100 µM

SMILES: COc1cc(/C=C2\CC3C4CC=C5CC(N6CCCC6)CC[C@]5(C)C4CC[C@]3(C)C2OC(C)=O)ccc1OCCN1CCCC1 (stereo not given in full)
- GI50 [1]: 1.92 µM
- TGI [1]: 3.5 µM
- GI50 [2]: 2.08 µM
- TGI [2]: 4.63 µM
- GI50 [4]: 0.304 µM
- TGI [4]: 2 µM
- GI50 [5]: 2.51 µM
- TGI [5]: 5.09 µM
- GI50 [6]: 1.73 µM
- TGI [6]: 3.16 µM
- GI50 [10]: 3.45 µM
- TGI [10]: 10.2 µM
- GI50 [7]: 1.79 µM
- TGI [7]: 3.45 µM
- GI50 [8]: 2.53 µM
- TGI [8]: 6.04 µM
- GI50 [9]: 14.9 µM
- TGI [9]: 29.2 µM

SMILES: Cc1ccc(C(=O)CC(Sc2cccc(Cl)c2Cl)c2ccc(Cl)cc2)cc1C (stereo not given)
- GI50 [1]: 22.8 µM
- TGI [1]: 53.6 µM
- GI50 [2]: 19.2 µM
- TGI [2]: 52.6 µM
- GI50 [4]: 15.4 µM
- TGI [4]: 31.1 µM
- GI50 [6]: 17.8 µM
- TGI [6]: 36.2 µM
- GI50 [10]: 15.8 µM
- TGI [10]: 29.2 µM
- GI50 [7]: 21.2 µM
- TGI [7]: 57.6 µM
- GI50 [8]: 21.3 µM
- TGI [8]: 48.2 µM
- GI50 [9]: 17.2 µM
- TGI [9]: 35 µM

SMILES: Cc1ccc(-c2nc(C(Cl)Cl)n3nc(-c4ccccc4)cc3n2)cc1
- GI50 [3]: 0.281 µM
- TGI [3]: 1.35 µM
- GI50 [4]: 0.222 µM
- TGI [4]: 0.586 µM
- GI50 [5]: > 100 µM
- TGI [5]: > 100 µM
- GI50 [6]: 0.676 µM
- TGI [6]: 2.17 µM
- GI50 [8]: 1.06 µM
- TGI [8]: 4.82 µM

SMILES: CC(C)(C)C1(O)Cc2ccccc2C(=O)O1 (stereo not given)
- TGI [1]: > 100 µM
- TGI [2]: > 100 µM
- TGI [3]: > 100 µM
- TGI [4]: > 100 µM
- TGI [5]: > 100 µM
- TGI [6]: > 100 µM
- TGI [7]: > 100 µM
- TGI [8]: > 100 µM
- TGI [9]: > 100 µM

SMILES: N#Cc1c(N)c(C(=O)O)nn(-c2cccc(C(F)(F)F)c2)c1=O
- TGI [1]: > 100 µM
- TGI [2]: > 100 µM
- TGI [3]: > 100 µM
- TGI [4]: > 100 µM
- TGI [5]: > 100 µM
- TGI [6]: > 100 µM
- TGI [7]: > 100 µM
- TGI [8]: > 100 µM
- TGI [9]: > 100 µM

SMILES: Oc1c2c(c(O)c3ccccc13)=N[C@@H](c1ccccc1)[C@H](c1ccccc1)N=2
- TGI [1]: > 100 µM
- TGI [2]: > 100 µM
- TGI [3]: > 100 µM
- TGI [4]: > 100 µM
- TGI [5]: > 100 µM
- TGI [6]: > 100 µM
- TGI [7]: > 100 µM
- TGI [8]: > 100 µM
- TGI [9]: > 100 µM

SMILES: CN(C)c1nc(-c2cccs2)n2nc(-c3ccc(Cl)cc3)cc2n1
- GI50 [1]: 25.5 µM
- TGI [1]: > 100 µM
- GI50 [5]: 2.26 µM
- TGI [5]: 10.4 µM
- GI50 [6]: 3.93 µM
- TGI [6]: > 100 µM
- GI50 [7]: 5.92 µM
- TGI [7]: > 100 µM
- GI50 [8]: 21.3 µM
- TGI [8]: > 100 µM

SMILES: COc1ccc2c(c1)[C@@]13CCN4CC5=CCO[C@H]6CC(=O)N2[C@H]1[C@H]6[C@H]5C[C@H]43
- TGI [1]: > 100 µM
- TGI [2]: > 100 µM
- TGI [3]: > 100 µM
- TGI [4]: > 100 µM
- TGI [6]: > 100 µM
- TGI [10]: > 100 µM
- TGI [7]: > 100 µM
- TGI [8]: > 100 µM
- TGI [9]: > 100 µM

SMILES: CCOc1cccc2nc3cccc(C(=O)NCCN(C)C)c3nc12
- TGI [1]: 6.77 µM
- TGI [2]: > 100 µM
- TGI [4]: 5.51 µM
- TGI [5]: 11.6 µM
- TGI [6]: > 28.7 µM
- TGI [7]: 3.38 µM
- TGI [9]: 7.9 µM

SMILES: c1ccc2c(c1)N=C(c1cccc3ccccc13)CC(c1cccc3ccccc13)S2 (stereo not given)
- TGI [1]: 14.5 µM
- TGI [2]: 41.9 µM
- TGI [4]: 9.68 µM
- TGI [5]: 19.1 µM
- TGI [6]: 13.5 µM
- TGI [7]: 19.8 µM
- TGI [8]: 20.4 µM
- TGI [9]: 25.8 µM

SMILES: COC(=O)NC/C=C\c1nc(CC/C=C\C(=O)OC2CC3CC(=O)O[C@@H](/C=C/CC(C)C)C[C@@H]4CCC(C)C(C[C@@H](OC)CC(C2)O3)O4)co1 (stereo not given in full)
- GI50 [1]: < 0.01 µM
- TGI [1]: 38.3 µM
- GI50 [3]: < 0.01 µM
- TGI [3]: 2.38 µM
- GI50 [5]: > 100 µM
- TGI [5]: > 100 µM
- GI50 [6]: < 0.01 µM
- TGI [6]: 39.9 µM
- GI50 [10]: < 0.01 µM
- TGI [10]: > 100 µM
- GI50 [7]: 0.412 µM
- TGI [7]: 25.6 µM
- GI50 [8]: < 0.01 µM
- TGI [8]: 84 µM

SMILES: NC(N)=N/N=C/c1c(-c2ccccn2)nc2sc(Cl)cn12
- GI50 [1]: 1.54 µM
- TGI [1]: 3.49 µM
- GI50 [2]: 6.87 µM
- TGI [2]: 14 µM
- GI50 [3]: 10 µM
- TGI [3]: 21.3 µM
- GI50 [4]: 7.55 µM
- TGI [4]: 14.3 µM
- GI50 [6]: 8.45 µM
- TGI [6]: 16.4 µM
- GI50 [10]: 10.9 µM
- TGI [10]: 22 µM
- GI50 [7]: 8.01 µM
- TGI [7]: 14.9 µM
- GI50 [8]: 8.04 µM
- TGI [8]: 17.8 µM
- GI50 [9]: 8.13 µM
- TGI [9]: 15.1 µM

SMILES: Nc1ccc(SC23CC4CC(CC(C4)C2)C3)cc1
- TGI [1]: > 100 µM
- TGI [2]: > 100 µM
- TGI [4]: > 100 µM
- TGI [6]: > 100 µM
- TGI [10]: > 100 µM
- TGI [7]: > 100 µM
- TGI [8]: > 100 µM
- TGI [9]: > 100 µM

SMILES: CN(C)C(=S)/N=c1\ss/c(=N\S(=O)(=O)c2ccccc2)n1-c1ccccc1
- TGI [1]: > 100 µM
- TGI [2]: > 100 µM
- TGI [3]: 67 µM
- TGI [4]: > 100 µM
- TGI [5]: > 100 µM
- TGI [6]: > 100 µM
- TGI [7]: > 100 µM
- TGI [8]: > 100 µM
- TGI [9]: > 100 µM

SMILES: COc1ccc(C(=O)C(C(=O)CCC(=O)Nc2cccc(C(F)(F)F)c2)c2ccccc2)cc1 (stereo not given)
- TGI [1]: > 100 µM
- TGI [2]: > 100 µM
- TGI [3]: > 100 µM
- TGI [4]: > 100 µM
- TGI [5]: > 100 µM
- TGI [6]: > 100 µM
- TGI [7]: > 100 µM
- TGI [8]: > 100 µM
- TGI [9]: > 100 µM

SMILES: COc1ccc(C2=NC(C)(C)CO2)cc1
- TGI [1]: > 100 µM
- TGI [2]: > 100 µM
- TGI [3]: > 100 µM
- TGI [4]: > 100 µM
- TGI [5]: > 100 µM
- TGI [6]: > 100 µM
- TGI [7]: > 100 µM
- TGI [8]: > 100 µM
- TGI [9]: > 100 µM

SMILES: c1cc[c]([Sn]([S]c2cccc3cccnc23)([c]2ccccc2)[c]2ccccc2)cc1
- GI50 [1]: 0.0725 µM
- TGI [1]: 0.393 µM
- GI50 [2]: 0.0331 µM
- TGI [2]: 0.224 µM
- GI50 [4]: 0.0158 µM
- TGI [4]: 0.0346 µM
- TGI [5]: 0.0473 µM
- GI50 [6]: 0.0234 µM
- TGI [6]: 0.0758 µM
- GI50 [7]: 0.0352 µM
- TGI [7]: 0.162 µM
- GI50 [8]: 0.0469 µM
- TGI [8]: 0.241 µM
- GI50 [9]: 0.0446 µM
- TGI [9]: 0.181 µM
